Laboratory results as given in patent US20100298141A1, “SUBSTITUTED PYRIDINE N-OXIDE HERBICIDES” (E. I. DU PONT DE NEMOURS AND COMPANY, priority 2007, published 2010).

Legend:
[1] = tested on: rice; assay: Test C flooded paddy test; assay type: in vivo, Oryza sativa; conditions: Flood
Summary of the method: (§1)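 Pots were flooded to 3 cm above the soil surface at treatment, compound applied directly to the paddy water, and that depth held throughout. Plants were kept in a greenhouse for 13 to 15 days, then visually rated against untreated controls.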

[2] = tested on: wheat; assay: Test C pre-/postemergence test; assay type: in vivo, Triticum aestivum; conditions: Preemergence
Summary of the method: (§2)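 Compounds in a non-phytotoxic solvent with surfactant applied preemergence to seeded pots and, at the same time, postemergence to plants 2–18 cm tall (1- to 4-leaf stage). Paddy tests: pots flooded to 3 cm, compound applied into the water, depth held throughout.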

[3] = tested on: wheat; assay: Test A pre-/postemergence greenhouse test; assay type: in vivo, Triticum aestivum; conditions: for Wheat plant response rating: 0 to 100 scale
Summary of the method: (§3)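 Sowing in loam/sand; same-day pre (directed soil spray) and post (foliar, 1–2 leaf, 2–10 cm) treatment with surfactant-containing non-phytotoxic solvent formulation; ~10 days in greenhouse; eye-scored injury against untreated plants.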

[4] = tested on: pigweed; assay: Test C pre-/postemergence test; assay type: in vivo, Amaranthus retroflexus; conditions: Preemergence
Summary of the method: as §2

[5] = tested on: corn; assay: Test A pre-/postemergence greenhouse test; assay type: in vivo, Zea mays; conditions: for Corn plant response rating: 0 to 100 scale
Summary of the method: as §3

[6] = tested on: umbrella sedge; assay: Test C flooded paddy test; assay type: in vivo, Cyperus difformis; conditions: Flood
Summary of the method: as §1

[7] = tested on: Goosegrass; assay: Test C pre-/postemergence test; assay type: in vivo, Eleusin indica; conditions: Preemergence
Summary of the method: as §2

[8] = tested on: Surinam grass; assay: Test C pre-/postemergence test; assay type: in vivo, Brachiaria decumbens; conditions: Preemergence
Summary of the method: as §2

[9] = tested on: giant foxtail; assay: Test A pre-/postemergence greenhouse test; assay type: in vivo, Setaria faberi; conditions: for Foxtail, Giant plant response rating: 0 to 100 scale
Summary of the method: as §3

[10] = tested on: eastern black nightshade; assay: Test C pre-/postemergence test; assay type: in vivo, Solanum ptycanthum; conditions: Preemergence
Summary of the method: as §2

[11] = tested on: lambsquarters; assay: Test C pre-/postemergence test; assay type: in vivo, Chenopodium album; conditions: Preemergence
Summary of the method: as §2

[12] = tested on: bermudagrass; assay: Test C pre-/postemergence test; assay type: in vivo, Cynodon dactylon
Summary of the method: as §2

[13] = tested on: crabgrass; assay: Test C pre-/postemergence test; assay type: in vivo, Digitaria sanguinalis; conditions: Preemergence
Summary of the method: as §2

[14] = tested on: redroot pigweed; assay: Test A pre-/postemergence greenhouse test; assay type: in vivo, Amaranthus retroflexus; conditions: for Pigweed plant response rating: 0 to 100 scale
Summary of the method: as §3

[15] = tested on: morningglory; assay: Test A pre-/postemergence greenhouse test; assay type: in vivo, Ipomoea spp.; conditions: for Morningglory plant response rating: 0 to 100 scale
Summary of the method: as §3

[16] = tested on: common (oilseed) sunflower; assay: Test C pre-/postemergence test; assay type: in vivo, Helianthus annuus; conditions: Preemergence
Summary of the method: as §2

[17] = tested on: barnyardgrass; assay: Test A pre-/postemergence greenhouse test; assay type: in vivo, Echinochloa crus-galli; conditions: for Barnyardgrass plant response rating: 0 to 100 scale
Summary of the method: as §3

[18] = 31 g ai/ha, scale 0 to 100 (0 no effect, 100 complete control)
[19] = 62 g ai/ha, scale 0 to 100, 0 no effect, 100 complete control, 13 to 15 days
[20] = 125 g ai/ha, scale 0 to 100, 0 no effect, 100 complete control, 13 to 15 days
[21] = Postemergence, 125 g ai/ha, 0 is no effect, 100 is complete control
[22] = Postemergence, 500 g ai/ha, 0 is no effect, 100 is complete control
[23] = Preemergence, 125 g ai/ha, 0 no effect, 100 complete control
[24] = Preemergence, 500 g ai/ha, 0 to 100 scale where 0 is no effect and 100 is complete control

Cc1cc[n+]([O-])c(S(=O)(=O)C(Cl)c2c(C(F)(F)F)nn(C)c2Cl)c1 (racemic) [Compound 22]
Plant response rating, Rice [1, 18]: 0
Plant response rating, Rice [1, 19]: 30
Plant response rating, Rice [1, 20]: 80
Plant response rating, Rice ([1]; 250 g ai/ha, scale 0 to 100 (0 no effect, 100 complete control)): 80
Wheat plant response rating ([2]; 62 g ai/ha, scale 0 to 100): 0
Plant response rating, Wheat [2, 18]: 0
Wheat plant response rating [3, 21]: 0
Wheat plant response rating [3, 22]: 40
Wheat plant response rating [3, 23]: 20
Plant response rating, Wheat [3, 24]: 50
Pigweed plant response rating ([4]; 62 g ai/ha, scale 0 to 100): 100
Plant response rating, Pigweed [4, 18]: 100
Corn plant response rating [5, 21]: 0
Corn plant response rating [5, 22]: 30
Corn plant response rating [5, 23]: 0
Plant response rating, Corn [5, 24]: 20
Plant response rating, Sedge, Umbrella [6, 18]: 60
Plant response rating, Sedge, Umbrella [6, 19]: 85
Plant response rating, Sedge, Umbrella [6, 20]: 95
Plant response rating, Sedge, Umbrella ([6]; 250 g ai/ha, scale 0 to 100, 0 no effect, 100 complete control, 13 to 15 days): 95
Goosegrass plant response rating ([7]; 62 g ai/ha, scale 0 to 100): 100
Plant response rating, Goosegrass [7, 18]: 100
Plant response rating (0 to 100), Goosegrass ([7]; 250 g ai/ha): 100
Surinam Grass plant response rating ([8]; 62 g ai/ha, scale 0 to 100): 60
Plant response rating, Surinam Grass [8, 18]: 10
Foxtail, Giant plant response rating [9, 21]: 50
Foxtail, Giant plant response rating [9, 22]: 80
Foxtail, Giant plant response rating [9, 23]: 100
Plant response rating, Foxtail, Giant [9, 24]: 100
Nightshade plant response rating ([10]; 62 g ai/ha, scale 0 to 100): 85
Plant response rating, Nightshade [10, 18]: 0
Lambsquarters plant response rating ([11]; 62 g ai/ha, scale 0 to 100): 100
Plant response rating, Lambsquarters [11, 18]: 0
Bermudagrass plant response rating ([12]; 62 g ai/ha, Preemergence, scale 0 to 100 (0 no effect, 100 complete control)): 100
Plant response rating, Bermudagrass ([12]; Preemergence, 31 g ai/ha, scale 0 to 100 (0 no effect, 100 complete control)): 70
Plant response rating (0 to 100), Bermudagrass ([12]; Preemergence, 250 g ai/ha): 100
Bermudagrass plant response rating ([12]; preemergence, 125 g ai/ha, scale 0 (no effect) to 100 (complete control)): 100
Crabgrass, Large plant response rating ([13]; 62 g ai/ha, scale 0 to 100): 100
Plant response rating, Crabgrass, Large [13, 18]: 98
Plant response rating (0 to 100), Crabgrass, Large ([13]; 250 g ai/ha): 100
Pigweed plant response rating [14, 21]: 10
Pigweed plant response rating [14, 22]: 50
Pigweed plant response rating [14, 23]: 100
Plant response rating, Pigweed [14, 24]: 100
Morningglory plant response rating [15, 21]: 20
Morningglory plant response rating [15, 22]: 40
Morningglory plant response rating [15, 23]: 70
Plant response rating, Morningglory [15, 24]: 90
Sunflower plant response rating ([16]; 62 g ai/ha, scale 0 to 100): 0
Plant response rating, Sunflower [16, 18]: 0
Barnyardgrass plant response rating [17, 21]: 40
Barnyardgrass plant response rating [17, 22]: 80
Barnyardgrass plant response rating [17, 23]: 90
Plant response rating, Barnyardgrass [17, 24]: 100
